Results taken from the NIST ThermoML archive (doi:10.1021/je049534w).

Conditions: Liquid; for speed of sound: Linear variable-path acoustic interferometer

CCCCn1cc[n+](C)c1.F[B-](F)(F)F [1-butyl-3-methylimidazolium tetrafluoroborate]
Conditions | mass density [kg/m3] | speed of sound [m/s]
283.15 K, 100 kPa | – | 1599.5
283.15 K, 4956 kPa | – | 1612.5
283.15 K, 9954 kPa | – | 1626.2
283.15 K, 20130 kPa | – | 1653.1
283.15 K, 30003 kPa | – | 1678.3
283.15 K, 44948 kPa | – | 1714.7
283.15 K, 59705 kPa | – | 1749
283.15 K, 79788 kPa | – | 1793
283.15 K, 99235 kPa | – | 1833.6
283.15 K, 124380 kPa | – | 1882.9
283.15 K, 151416 kPa | – | 1932.2
293.15 K, 100 kPa | – | 1570.2
293.15 K, 5094 kPa | – | 1584
293.15 K, 10075 kPa | – | 1597.7
293.15 K, 20080 kPa | – | 1624.4
293.15 K, 59673 kPa | – | 1721
293.15 K, 98994 kPa | – | 1806.1
293.15 K, 151068 kPa | – | 1907.3
298.34 K, 100 kPa | 1205.03 | –
298.34 K, 700 kPa | 1205.32 | –
298.34 K, 5280 kPa | 1207.44 | –
298.34 K, 10600 kPa | 1209.87 | –
298.34 K, 15920 kPa | 1212.24 | –
298.34 K, 20540 kPa | 1214.26 | –
298.34 K, 25000 kPa | 1216.18 | –
298.34 K, 30710 kPa | 1218.62 | –
298.34 K, 35190 kPa | 1220.47 | –
298.34 K, 40660 kPa | 1222.73 | –
298.34 K, 44370 kPa | 1224.21 | –
298.34 K, 49660 kPa | 1226.32 | –
298.34 K, 54340 kPa | 1228.16 | –
298.34 K, 59230 kPa | 1230.05 | –
303.15 K, 100 kPa | – | 1544.9
303.15 K, 5080 kPa | – | 1558.6
303.15 K, 10091 kPa | – | 1572.5
303.15 K, 20063 kPa | – | 1599.5
303.15 K, 59767 kPa | – | 1697
303.15 K, 99007 kPa | – | 1782.6
303.15 K, 124609 kPa | – | 1834
303.23 K, 100 kPa | 1201.29 | –
303.23 K, 8780 kPa | 1205.3 | –
303.23 K, 11170 kPa | 1206.4 | –
303.23 K, 15230 kPa | 1208.22 | –
303.23 K, 20270 kPa | 1210.43 | –
303.23 K, 24890 kPa | 1212.44 | –
303.23 K, 30670 kPa | 1214.92 | –
303.23 K, 34770 kPa | 1216.66 | –
303.23 K, 40020 kPa | 1218.85 | –
303.23 K, 44310 kPa | 1220.61 | –
303.23 K, 49500 kPa | 1222.73 | –
303.23 K, 54490 kPa | 1224.75 | –
303.23 K, 59820 kPa | 1226.85 | –
313.01 K, 100 kPa | 1194.59 | –
313.01 K, 4130 kPa | 1196.19 | –
313.01 K, 10180 kPa | 1198.82 | –
313.01 K, 15650 kPa | 1201.26 | –
313.01 K, 21300 kPa | 1203.75 | –
313.01 K, 24580 kPa | 1205.19 | –
313.01 K, 30110 kPa | 1207.62 | –
313.01 K, 35390 kPa | 1209.88 | –
313.01 K, 44700 kPa | 1213.84 | –
313.01 K, 49720 kPa | 1215.92 | –
313.01 K, 54430 kPa | 1217.91 | –
313.01 K, 59450 kPa | 1219.95 | –
313.15 K, 100 kPa | – | 1525.2
313.15 K, 5091 kPa | – | 1539.3
313.15 K, 10185 kPa | – | 1554
313.15 K, 20070 kPa | – | 1581
313.15 K, 59719 kPa | – | 1679.3
313.15 K, 99014 kPa | – | 1765.8
313.15 K, 123975 kPa | – | 1816.6
313.15 K, 151204 kPa | – | 1870
322.85 K, 100 kPa | 1187.85 | –
322.85 K, 3730 kPa | 1189.5 | –
322.85 K, 6220 kPa | 1190.68 | –
322.85 K, 10020 kPa | 1192.47 | –
322.85 K, 14870 kPa | 1194.68 | –
322.85 K, 20450 kPa | 1197.2 | –
322.85 K, 25400 kPa | 1199.38 | –
322.85 K, 31090 kPa | 1201.87 | –
322.85 K, 34850 kPa | 1203.51 | –
322.85 K, 41130 kPa | 1206.23 | –
322.85 K, 44880 kPa | 1207.85 | –
322.85 K, 49830 kPa | 1209.95 | –
322.85 K, 54520 kPa | 1211.91 | –
322.85 K, 59920 kPa | 1214.2 | –
323.15 K, 100 kPa | – | 1503.4
323.15 K, 4999 kPa | – | 1517.8
323.15 K, 10202 kPa | – | 1533.4
323.15 K, 20046 kPa | – | 1561.4
323.15 K, 59977 kPa | – | 1662.1
323.15 K, 99014 kPa | – | 1748.8
323.15 K, 123945 kPa | – | 1798.9
323.15 K, 151374 kPa | – | 1853.2
332.73 K, 100 kPa | 1181.05 | –
332.73 K, 4130 kPa | 1182.92 | –
332.73 K, 6350 kPa | 1183.98 | –
332.73 K, 11210 kPa | 1186.3 | –
332.73 K, 15220 kPa | 1188.15 | –
332.73 K, 20540 kPa | 1190.55 | –
332.73 K, 25280 kPa | 1192.7 | –
332.73 K, 30760 kPa | 1195.16 | –
332.73 K, 35080 kPa | 1197.05 | –
332.73 K, 40110 kPa | 1199.23 | –
332.73 K, 44860 kPa | 1201.24 | –
332.73 K, 49840 kPa | 1203.35 | –
332.73 K, 54760 kPa | 1205.7 | –
332.73 K, 59130 kPa | 1207.2 | –
